IC50 data for one compound are collected here from patent US20240246941A1, “SUBSTITUTED 4-(3-AMINOPROP-1-YL)AMINOQUINOLINE ANALOGS AS MODULATORS OF MELANOMA-ASSOCIATED ANTIGEN 11 UBIQUITIN LIGASE” (ST. JUDE CHILDREN'S RESEARCH HOSPITAL, INC., priority 2020, published 2024).

The experiment deals with interaction between GST-MAGEA11 MHD and FAM-PCF11_4 peptide (MAGE-A11:PCF11) (Homo sapiens (Human), UniProt P43364). Description: TR-FRET dose response competition assay for disruption of MAGE-A11:PCF11 binding. The settings on record: read-out: IC50 by TR-FRET for disrupting MAGE-A11:PCF11 interaction. In short, it runs like this:
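Competition TR-FRET at room temperature in 50 mM Tris pH 7.5, 20 mM MgCl2, 0.1 mg/ml BSA, 1 mM DTT: final 5 nM GST-MAGEA11 MHD, 5 nM Tb-anti-GST, 200 nM FAM-PCF11_4, 90 min. Ratio 520/490 nm converted to % inhibition; IC50 from sigmoidal fit.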
Background: Time-resolved FRET reads energy transfer from a long-lived donor to a nearby acceptor.

Sequence of interaction between GST-MAGEA11 MHD and FAM-PCF11_4 peptide (MAGE-A11:PCF11) (P43364 218-429): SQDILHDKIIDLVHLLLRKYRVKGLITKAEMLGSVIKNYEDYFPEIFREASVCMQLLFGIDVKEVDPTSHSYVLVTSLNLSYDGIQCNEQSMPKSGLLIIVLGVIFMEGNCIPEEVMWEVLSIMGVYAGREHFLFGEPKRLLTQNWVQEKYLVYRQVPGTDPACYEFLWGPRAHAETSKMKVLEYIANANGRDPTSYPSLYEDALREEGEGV

For orientation: IC50 means the concentration that gives 50% inhibition. For `FC(F)(F)c1ccc2c(NCCCNCc3ccc4[nH]ccc4c3)ccnc2c1` [SJ000521054-02, N^1-((1H-Indol-5-yl)methyl)-N^3-(7-(trifluoromethyl)quinolin-4-yl)propane-1,3-diamine], the IC50 came to 400 nM.
